Measured values reported in ChEMBL document CHEMBL1131692, “A study of novel antiallergic agents with eosinophilic infiltration inhibiting action” (Bioorg Med Chem Lett, 1999).

species on record: Cavia porcellus; assay: Evaluated for antihistamine action using guinea pig ilea; assay type: functional; conditions: read-out: pA2 (converted)

Compound	Kb
Cc1cc(OCCCCCCCCCCN2CCN(C(c3ccccc3)c3ccccc3)CC2)c(C)c(C)c1O	407 nM
Cc1cc(OCCCCN2CCN(C(c3ccccc3)c3ccccc3)CC2)c(C)c(C)c1O	77.6 nM
Cc1cc(OCCCN2CCN(C(c3ccccc3)c3ccccc3)CC2)c(C)c(C)c1O	74.1 nM
Cc1cc(OCCN2CCN(C(c3ccccc3)c3ccccc3)CC2)c(C)c(C)c1O	117 nM
Cc1cc(OCCCCCN2CCN(C(c3ccccc3)c3ccccc3)CC2)c(C)c(C)c1O	151 nM
Cc1cc(OCCCCCCN2CCN(C(c3ccccc3)c3ccccc3)CC2)c(C)c(C)c1O	155 nM
Cc1cc(OCCCCCCCCN2CCN(C(c3ccccc3)c3ccccc3)CC2)c(C)c(C)c1O	275 nM
O=c1[nH]c2ccccc2n1CCCN1CCN(C(c2ccccc2)c2ccccc2)CC1 [OXATOMIDE]	45.7 nM
